This is an account of results in patent US8828926B2, “Uses of natriuretic peptide constructs” (priority 2010, dated 2014).

Positions of bridges follow the written chain, without caps; N, C: chain ends. Non-standard residues stand in square brackets, D forms with d. Residues, ends and D or L forms follow the SMILES beside them. *: point of attachment. X1 = N=C(N)NCCC[C@H]1C(=O)N[C@@H](C(N)=O)CN1*; dNle = CCCC[C@@H](N)C(=O)O; Heptanoyl = CCCCCCC(=O)*

The subject of one series is human lung tissues. Nature of the series: Human precision-cut lung slice relaxation, precontracted with carbachol. Format: cell-based.
In the next series the target is human NEP (hNEP) (Homo sapiens, UniProt P08473). Nature of the series: Metabolism by human neutral endopeptidase (hNEP) solution at 37° C. It is filed as in vitro ADME. Conditions: substrate concentration 50 μM; for remaining at 2 h, 50 μM: read-out: percent remaining after 2-hour exposure to hNEP. As for the experimental part: . Pharmacol. 191:341-366 (2009)). A comparison was made between the sensitivity of the construct of formula IV and ANP to metabolism by human NEP (hNEP) (substrate concentration 50 μM). After 2-hour exposure to hNEP solution at 37° C., there was minimal degradation of the construct of formula IV (92% remaining; n=5). In contrast, under these conditions ANP was about 90% degraded after 60 minutes and 100% after 2-hours (n=4). […] Results are shown in FIG. 1; results in FIG. 1 are expressed as the percent of the starting material, and are either the mean of 1-5 experiments or, where error bars are shown, are the mean±standard deviation.
Chain of human NEP (hNEP) (P08473 whole entry): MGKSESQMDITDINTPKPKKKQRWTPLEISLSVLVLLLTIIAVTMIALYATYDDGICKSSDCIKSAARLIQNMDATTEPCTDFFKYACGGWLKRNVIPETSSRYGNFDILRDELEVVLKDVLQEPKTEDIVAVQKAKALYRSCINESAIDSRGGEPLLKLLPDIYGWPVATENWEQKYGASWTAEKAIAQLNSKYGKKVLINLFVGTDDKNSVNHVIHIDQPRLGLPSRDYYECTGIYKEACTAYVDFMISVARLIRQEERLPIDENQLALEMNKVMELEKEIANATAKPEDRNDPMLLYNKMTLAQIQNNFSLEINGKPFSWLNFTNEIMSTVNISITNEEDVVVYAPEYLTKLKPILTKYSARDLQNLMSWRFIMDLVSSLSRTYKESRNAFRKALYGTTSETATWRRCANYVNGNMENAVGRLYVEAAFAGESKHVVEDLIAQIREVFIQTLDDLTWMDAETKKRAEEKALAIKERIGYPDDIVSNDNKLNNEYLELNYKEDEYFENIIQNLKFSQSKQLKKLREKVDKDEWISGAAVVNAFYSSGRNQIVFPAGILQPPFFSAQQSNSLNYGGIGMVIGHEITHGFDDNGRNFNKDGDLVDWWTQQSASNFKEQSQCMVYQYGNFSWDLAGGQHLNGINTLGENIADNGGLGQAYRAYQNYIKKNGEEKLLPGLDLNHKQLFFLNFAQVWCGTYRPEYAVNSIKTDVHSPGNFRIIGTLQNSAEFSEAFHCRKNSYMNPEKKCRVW

For series [1] the following is noted: Potter et al. 2009; cited from earlier work.
Series [2] relates to bronchoconstrictor response evoked by methacholine. As to the kind of experiment: Methacholine-evoked bronchoconstriction in anesthetized guinea pigs, intratracheal delivery. Format: in vivo, guinea pigs (Dunkin Hartley). Conditions: 1000 μg/kg IT, 15 minutes, methacholine 10 μg/mL. As for the experimental part: Studies were conducted with intratracheal (IT) delivery of the construct of formula IV in anesthetized guinea pigs (Dunkin Hartley) challenged with the muscarinic receptor agonist, methacholine. […] The inhibition was maintained for all doses after the 60 minute pretreatment time. The duration of action of 10 μg/kg and 100 μg/kg doses of the construct of formula IV was explored (FIGS. 4C and 4D). For both doses the inhibition extended to 120 minutes post-administration, although it was reduced, with inhibitory effect absent after 240 minutes pretreatment.

For the molecule `CC(C)NCC(O)c1ccc(O)c(O)c1` (stereo not shown) [Isoprenaline], the “relaxation of carbachol-induced contraction” value in the series with human lung tissues (100 μM, human lung slices) was “about 75%”. In addition, the Isoproterenol-mediated broncho-dilatation in the series on human lung tissues (in the absence of the construct of formula IV, n=4) amounted to 88.2±3.4%. Regarding `CCCCCCC(=O)N[C@H]1CSSC[C@@H](C(=O)N[C@@H](Cc2ccc(O)cc2)C(=O)N2C[C@H](C(N)=O)NC(=O)[C@@H]2CCCNC(=N)N)NC(=O)[C@H](CO)NC(=O)[C@H]([C@@H](C)CC)NC(=O)[C@H](CCCNC(=N)N)NC(=O)[C@H](CC(=O)O)NC(=O)[C@@H](CCCC)NC(=O)[C@H](CCCNC(=N)N)NC(=O)CNC(=O)[C@@H](C)NC(=O)[C@H](Cc2ccccc2)NC(=O)[C@H](Cc2c[nH]cn2)NC1=O` [construct of formula IV] (Heptanoyl-CHF[dA]GR[dNle]DRISCY-X1; disulfide 1-12), on human NEP (hNEP), the amount remaining (in general, the share of the starting amount still present when the sample was taken) at 2 h, 50 μM was determined as 92%. `CC[C@H](C)[C@@H]1NC(=O)[C@H](CCCNC(=N)N)NC(=O)[C@H](CC(=O)O)NC(=O)[C@H](CC(C)C)NC(=O)[C@H](CCCCN)NC(=O)[C@H](CC(C)C)NC(=O)CNC(=O)[C@H](Cc2ccccc2)NC(=O)[C@@H](NC(=O)CNC(=O)[C@H](CCCCN)NC(=O)[C@H](CO)NC(=O)[C@H](CC(C)C)NC(=O)CN)CSSC[C@@H](C(=O)O)NC(=O)CNC(=O)[C@H](CC(C)C)NC(=O)CNC(=O)[C@H](CO)NC(=O)[C@H](CCSC)NC(=O)[C@H](CO)NC(=O)CNC1=O` [hCNP]: the amount remaining at 1 h, 50 μM on human NEP (hNEP) (60 min, read-out: percent remaining after 60-min incubation with hNEP) was determined as 39%. Besides, the share remaining at 2 h, 50 μM at human NEP (hNEP) worked out at 1%. For the same molecule, the “reported human plasma half-life” value in series [1] is on record as “about 2 minutes”. As for `CC(C)(C)NCC(O)c1ccc(O)c(CO)c1` (stereo not shown) [salbutamol], the “maximum inhibition of bronchoconstrictor response” value in series [2] is recorded as 87±2%.
